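Values below derive from 48-hour exposures of cells grown in 96-well plates, with endpoints linearly interpolated between the two concentrations bracketing the appropriate inhibition level. GI50: concentration for 50% inhibition of growth. At the TGI there is no net growth.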
How the values were obtained:
Assay in all cases: NCI tumour cell line growth inhibition, 48 h
RXF 393 renal = test system: RXF 393 renal
NCI-H460 lung = test system: NCI-H460 lung
NCI-H23 lung = test system: NCI-H23 lung
NCI-H522 lung = test system: NCI-H522 lung
TK-10 renal = test system: TK-10 renal
HOP-92 NSCLC = test system: HOP-92 NSCLC
MALME-3M melanoma = test system: MALME-3M melanoma
SNB-19 CNS = test system: SNB-19 CNS
HL-60(TB) leukemia = test system: HL-60(TB) leukemia
SNB-75 CNS = test system: SNB-75 CNS
CCRF-CEM leukemia = test system: CCRF-CEM leukemia
UO-31 renal = test system: UO-31 renal
KM12 colon = test system: KM12 colon
IGROV1 ovarian = test system: IGROV1 ovarian
MDA-MB-231 breast = test system: MDA-MB-231 breast
SN12C renal = test system: SN12C renal
HCT-15 colon = test system: HCT-15 colon
M14 melanoma = test system: M14 melanoma
OVCAR-8 ovarian = test system: OVCAR-8 ovarian
SK-MEL-28 melanoma = test system: SK-MEL-28 melanoma
U251 CNS = test system: U251 CNS
SR leukemia = test system: SR leukemia
NCI/ADR-RES ovarian = test system: NCI/ADR-RES ovarian
OVCAR-5 ovarian = test system: OVCAR-5 ovarian
K-562 leukemia = test system: K-562 leukemia
MOLT-4 leukemia = test system: MOLT-4 leukemia
SF-295 CNS = test system: SF-295 CNS
A498 renal = test system: A498 renal
HCT-116 colon = test system: HCT-116 colon
HOP-62 NSCLC = test system: HOP-62 NSCLC
LOX IMVI melanoma = test system: LOX IMVI melanoma
EKVX NSCLC = test system: EKVX NSCLC
RPMI-8226 leukemia = test system: RPMI-8226 leukemia
MDA-MB-435 = test system: MDA-MB-435
UACC-257 melanoma = test system: UACC-257 melanoma
OVCAR-4 ovarian = test system: OVCAR-4 ovarian
SK-OV-3 ovarian = test system: SK-OV-3 ovarian
OVCAR-3 ovarian = test system: OVCAR-3 ovarian
NCI-H226 lung = test system: NCI-H226 lung
PC-3 prostate = test system: PC-3 prostate
A549 NSCLC = test system: A549 NSCLC
SK-MEL-2 melanoma = test system: SK-MEL-2 melanoma
HT29 colon = test system: HT29 colon
SF-539 CNS = test system: SF-539 CNS
MCF7 breast = test system: MCF7 breast
SK-MEL-5 melanoma = test system: SK-MEL-5 melanoma
DU-145 prostate = test system: DU-145 prostate
ACHN renal = test system: ACHN renal
786-0 renal = test system: 786-0 renal
HS 578T breast = test system: HS 578T breast
T-47D breast = test system: T-47D breast
UACC-62 melanoma = test system: UACC-62 melanoma
SF-268 CNS = test system: SF-268 CNS
COLO 205 colon = test system: COLO 205 colon
BT-549 breast = test system: BT-549 breast
SW-620 colon = test system: SW-620 colon
HCC-2998 colon = test system: HCC-2998 colon
CAKI-1 renal = test system: CAKI-1 renal

SMILES: O=C(CCN1CCOCC1)Nc1cccc(-n2cc(-c3ccncc3)c(-c3ccc(Cl)c(O)c3)n2)c1
- GI50 (RXF 393 renal): 1.39 µM
- TGI (RXF 393 renal): 4.66 µM
- GI50 (NCI-H460 lung): 2.79 µM
- TGI (NCI-H460 lung): 12.4 µM
- GI50 (NCI-H23 lung): 3.04 µM
- TGI (NCI-H23 lung): 18.6 µM
- GI50 (NCI-H522 lung): 0.448 µM
- TGI (NCI-H522 lung): 5.4 µM
- GI50 (TK-10 renal): 8.18 µM
- TGI (TK-10 renal): 20.7 µM
- GI50 (HOP-92 NSCLC): 2.06 µM
- TGI (HOP-92 NSCLC): 14 µM
- GI50 (MALME-3M melanoma): 1.65 µM
- TGI (MALME-3M melanoma): 10.8 µM
- GI50 (SNB-19 CNS): 4.87 µM
- TGI (SNB-19 CNS): 22.6 µM
- GI50 (HL-60(TB) leukemia): 2.37 µM
- TGI (HL-60(TB) leukemia): 6.61 µM
- GI50 (SNB-75 CNS): 0.825 µM
- TGI (SNB-75 CNS): 3.3 µM
- GI50 (CCRF-CEM leukemia): 3.43 µM
- TGI (CCRF-CEM leukemia): 15.9 µM
- GI50 (UO-31 renal): 1.69 µM
- TGI (UO-31 renal): 11 µM
- GI50 (KM12 colon): 2.46 µM
- TGI (KM12 colon): 11.5 µM
- GI50 (IGROV1 ovarian): 3.52 µM
- TGI (IGROV1 ovarian): 21.5 µM
- GI50 (MDA-MB-231 breast): 2.6 µM
- TGI (MDA-MB-231 breast): 6.84 µM
- GI50 (SN12C renal): 3.74 µM
- TGI (SN12C renal): 23.6 µM
- GI50 (HCT-15 colon): 1.24 µM
- TGI (HCT-15 colon): 10.8 µM
- GI50 (M14 melanoma): 1.53 µM
- TGI (M14 melanoma): 4.16 µM
- GI50 (OVCAR-8 ovarian): 3.71 µM
- TGI (OVCAR-8 ovarian): 57.5 µM
- GI50 (SK-MEL-28 melanoma): 1.53 µM
- TGI (SK-MEL-28 melanoma): 3.33 µM
- GI50 (U251 CNS): 3.32 µM
- TGI (U251 CNS): 12.8 µM
- GI50 (SR leukemia): 0.685 µM
- TGI (SR leukemia): 8.53 µM
- GI50 (NCI/ADR-RES ovarian): 2.29 µM
- TGI (NCI/ADR-RES ovarian): > 100 µM
- GI50 (OVCAR-5 ovarian): 4.07 µM
- TGI (OVCAR-5 ovarian): 18.4 µM
- GI50 (K-562 leukemia): 1.76 µM
- TGI (K-562 leukemia): 11.4 µM
- GI50 (MOLT-4 leukemia): 2.65 µM
- TGI (MOLT-4 leukemia): 11.9 µM
- GI50 (SF-295 CNS): 1.31 µM
- TGI (SF-295 CNS): 3.38 µM
- GI50 (A498 renal): 1.52 µM
- TGI (A498 renal): 5.48 µM
- GI50 (HCT-116 colon): 3.04 µM
- TGI (HCT-116 colon): 12 µM
- GI50 (HOP-62 NSCLC): 2.23 µM
- TGI (HOP-62 NSCLC): 13.5 µM
- GI50 (LOX IMVI melanoma): 1.91 µM
- TGI (LOX IMVI melanoma): 11.8 µM
- GI50 (EKVX NSCLC): 3.63 µM
- TGI (EKVX NSCLC): 20.4 µM
- GI50 (RPMI-8226 leukemia): 2.8 µM
- TGI (RPMI-8226 leukemia): 15.1 µM
- GI50 (MDA-MB-435): 0.313 µM
- TGI (MDA-MB-435): 1.29 µM
- GI50 (UACC-257 melanoma): 1.9 µM
- TGI (UACC-257 melanoma): 4.42 µM
- GI50 (OVCAR-4 ovarian): 3.07 µM
- TGI (OVCAR-4 ovarian): 17.7 µM
- GI50 (SK-OV-3 ovarian): 3.51 µM
- TGI (SK-OV-3 ovarian): 14.4 µM
- GI50 (OVCAR-3 ovarian): 0.644 µM
- TGI (OVCAR-3 ovarian): 7.16 µM
- GI50 (NCI-H226 lung): 4.98 µM
- TGI (NCI-H226 lung): 21.4 µM
- GI50 (PC-3 prostate): 1.74 µM
- TGI (PC-3 prostate): 12.9 µM
- GI50 (A549 NSCLC): 3.75 µM
- TGI (A549 NSCLC): 16.1 µM
- GI50 (SK-MEL-2 melanoma): 1.85 µM
- TGI (SK-MEL-2 melanoma): 6.58 µM
- GI50 (HT29 colon): 1.9 µM
- TGI (HT29 colon): 11 µM
- GI50 (SF-539 CNS): 1.77 µM
- TGI (SF-539 CNS): 3.72 µM
- GI50 (MCF7 breast): 0.634 µM
- TGI (MCF7 breast): 11.9 µM
- GI50 (SK-MEL-5 melanoma): 0.621 µM
- TGI (SK-MEL-5 melanoma): 2.36 µM
- GI50 (DU-145 prostate): 2.49 µM
- TGI (DU-145 prostate): 11.7 µM
- GI50 (ACHN renal): 2.5 µM
- TGI (ACHN renal): 12.5 µM
- GI50 (786-0 renal): 1.9 µM
- TGI (786-0 renal): 4.75 µM
- GI50 (HS 578T breast): 3.17 µM
- TGI (HS 578T breast): 25.8 µM
- GI50 (T-47D breast): 1.74 µM
- TGI (T-47D breast): 9.75 µM
- GI50 (UACC-62 melanoma): 1.67 µM
- TGI (UACC-62 melanoma): 13.6 µM
- GI50 (SF-268 CNS): 2.81 µM
- TGI (SF-268 CNS): 14.4 µM
- GI50 (COLO 205 colon): 1.66 µM
- TGI (COLO 205 colon): 4.27 µM
- GI50 (BT-549 breast): 4.12 µM
- TGI (BT-549 breast): 18.1 µM
- GI50 (SW-620 colon): 1.56 µM
- TGI (SW-620 colon): 12.6 µM
- GI50 (HCC-2998 colon): 4.57 µM
- TGI (HCC-2998 colon): 17.3 µM

SMILES: COc1cc2nc(-c3cccs3)nc(Cl)c2cc1OC
- TGI (NCI-H460 lung): > 100 µM
- TGI (NCI-H23 lung): > 100 µM
- TGI (NCI-H522 lung): > 100 µM
- TGI (TK-10 renal): > 100 µM
- TGI (MALME-3M melanoma): > 100 µM
- TGI (SNB-19 CNS): > 100 µM
- TGI (HL-60(TB) leukemia): > 100 µM
- TGI (SNB-75 CNS): > 100 µM
- TGI (UO-31 renal): > 100 µM
- TGI (KM12 colon): > 100 µM
- TGI (IGROV1 ovarian): > 100 µM
- TGI (MDA-MB-231 breast): > 100 µM
- TGI (SN12C renal): > 100 µM
- TGI (HCT-15 colon): > 100 µM
- TGI (M14 melanoma): > 100 µM
- TGI (OVCAR-8 ovarian): > 100 µM
- TGI (SK-MEL-28 melanoma): > 100 µM
- TGI (U251 CNS): > 100 µM
- TGI (SR leukemia): 34.8 µM
- TGI (NCI/ADR-RES ovarian): > 100 µM
- TGI (OVCAR-5 ovarian): > 100 µM
- TGI (K-562 leukemia): > 100 µM
- TGI (SF-295 CNS): > 100 µM
- TGI (A498 renal): > 100 µM
- TGI (HCT-116 colon): > 100 µM
- TGI (HOP-62 NSCLC): > 100 µM
- TGI (EKVX NSCLC): > 100 µM
- TGI (MDA-MB-435): > 100 µM
- TGI (UACC-257 melanoma): > 100 µM
- TGI (OVCAR-4 ovarian): > 100 µM
- TGI (SK-OV-3 ovarian): > 100 µM
- TGI (OVCAR-3 ovarian): > 100 µM
- TGI (NCI-H226 lung): > 100 µM
- TGI (PC-3 prostate): > 100 µM
- TGI (A549 NSCLC): > 100 µM
- TGI (SK-MEL-2 melanoma): > 100 µM
- TGI (HT29 colon): > 100 µM
- TGI (CAKI-1 renal): > 100 µM
- TGI (SF-539 CNS): > 100 µM
- TGI (MCF7 breast): 76 µM
- TGI (SK-MEL-5 melanoma): > 100 µM
- TGI (DU-145 prostate): > 100 µM
- TGI (ACHN renal): > 100 µM
- TGI (786-0 renal): > 100 µM
- TGI (HS 578T breast): > 100 µM
- TGI (T-47D breast): > 100 µM
- TGI (UACC-62 melanoma): > 100 µM
- TGI (SF-268 CNS): > 100 µM
- TGI (COLO 205 colon): > 100 µM
- TGI (BT-549 breast): > 100 µM
- TGI (SW-620 colon): > 100 µM

From PubChem BioAssay (NCI)
